Counter-ions that a name gives are not always drawn.
Key:
[1] = molecular target: T1, α-1A adrenoreceptor (rat submaxillary gland) (Rattus norvegicus, UniProt P43140); assay: In vitro [3H]-prazosin radioligand binding, pharmacologically defined α-1A adrenoreceptor (rat submaxillary gland)
T1 construct: Rat submaxillary glands were used for α-1A adrenoreceptors; from tissue; host or cells: rat submaxillary gland membranes
T1 sequence (P43140 1-466): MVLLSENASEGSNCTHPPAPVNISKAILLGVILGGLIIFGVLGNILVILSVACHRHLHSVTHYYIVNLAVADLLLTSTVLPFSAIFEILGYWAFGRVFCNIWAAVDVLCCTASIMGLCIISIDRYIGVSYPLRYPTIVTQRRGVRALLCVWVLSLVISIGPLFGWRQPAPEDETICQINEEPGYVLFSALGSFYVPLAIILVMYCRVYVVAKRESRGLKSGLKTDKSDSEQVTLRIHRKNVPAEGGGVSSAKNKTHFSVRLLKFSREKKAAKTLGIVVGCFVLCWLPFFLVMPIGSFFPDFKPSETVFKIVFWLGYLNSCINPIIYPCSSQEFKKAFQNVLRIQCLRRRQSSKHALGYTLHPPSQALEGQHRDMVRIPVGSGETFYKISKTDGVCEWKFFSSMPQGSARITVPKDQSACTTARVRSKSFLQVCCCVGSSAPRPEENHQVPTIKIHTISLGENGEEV
Method: (§1) Additionally, binding affinity against the pharmacologically defined α-1A adrenoreceptor (rat submaxillary gland) was measured.
(§2) On the fifth day of culture, growth medium was removed from cells grown in roller bottles, and the cells were washed twice with PBS (Sigma, 120 mM NaCl, 2.7 mM KCl, 10 mM Na2 HPO4 --NaH2 PO4, pH=7.4). Cells were detached from the roller bottles by incubating for 15 minutes at 37° C. in a Tris-EDTA solution (10 mM Tris, 100 mM NaCl, 1 mM EDTA, pH=7.4). The cell suspension from each roller bottle was decanted into tared centrifuge tubes and kept on ice. An aliquot of each cell suspension was generally taken for cell counting. Cells were centrifuged at 3000×G for 5 min at 2°-4° C., washed with PBS and recentrifuged. The supernatant was decanted and the pellet weighed to determine the wet weight of cells. Cells were washed a final time in 40 vol 5 mM Tris-HCl, 5 mM EDTA, pH=7.7, and centrifuged at 40,000×G for 10 minutes. Cells were homogenized in 10 mL of 50 mM Tris-HCl, 5 mM EDTA (pH=7.4) and diluted to 40 mL/tube. Homogenates were centrifuged at 40,000×G for 10 minutes. The supernatant was decanted and the pellets rehomogenized in 50 mM Tris-HCl (pH=7.4) and centrifuged as before. The supernatant was decanted and the homogenate resuspended in 6.25 volumes (per gram wet weight) of 50 mM Tris-HCl and aliquots of the pooled homogenates frozen in liquid N2 and stored at -70° C. until the time of assay. Rat submaxillary glands were used for α-1A adrenoreceptors and were prepared essentially as described (Michel, A. D., Loury, D. N. and Whiting, R. L., Brit. J. Pharmacol. 98: 83-889 (1989)).
(§3) Receptor binding assays for α-1 adrenoreceptors were performed essentially as described by Greengrass and Bremner (Eur. J. Pharmacol. 55: 323-326 (1979)). […] Radioactivity was determined by standard liquid scintillation techniques. Data were analyzed as previously described (Hancock, A. A., Kyncl, J. J., Martin, Y. C. and DeBernardis, J. F., J Receptor Res. 8: 23-46 (1988)).

[2] = molecular target: T2, α-1a adrenoreceptor (bovine) (Bos taurus, UniProt P18130); assay: In vitro [3H]-prazosin radioligand binding, cloned α-1a adrenoreceptor expressed in LTK cells
T2 construct: expressed in transfected cells; cDNA from TULCO; membranes
T2 sequence (P18130 1-466): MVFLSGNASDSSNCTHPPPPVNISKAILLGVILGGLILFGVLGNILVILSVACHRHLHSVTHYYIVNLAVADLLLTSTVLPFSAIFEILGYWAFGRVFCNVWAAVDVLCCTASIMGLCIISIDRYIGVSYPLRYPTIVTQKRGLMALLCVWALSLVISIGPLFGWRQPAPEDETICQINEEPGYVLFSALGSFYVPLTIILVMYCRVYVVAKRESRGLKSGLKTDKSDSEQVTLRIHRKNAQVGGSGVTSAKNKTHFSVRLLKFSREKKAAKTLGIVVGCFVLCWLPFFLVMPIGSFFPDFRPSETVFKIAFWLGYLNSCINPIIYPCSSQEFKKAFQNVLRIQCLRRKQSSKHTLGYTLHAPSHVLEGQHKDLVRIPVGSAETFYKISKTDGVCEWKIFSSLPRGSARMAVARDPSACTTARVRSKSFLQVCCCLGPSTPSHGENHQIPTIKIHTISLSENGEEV
Source text: (§4) The cDNA clones encoding the α-1 adrenoreceptors (α-1a, α-1b, and α-1d) were obtained from TULCO (Triangle Universities Licensing Consortium, Research Triangle Park, N.C.) and inserted into the eukaryotic expression vector SnaB30. In this vector, expression of the adrenoreceptor gene is under the transcriptional control of an SV40 early promoter. Positive drug selection is provided by a neomycin-resistance gene. Mouse fibroblast cells (LTK) were transfected with the α1 expression plasmids and grown in Dulbecco's modified Eagle's medium (DMEM) containing 10% fetal calf serum and […]. Stable G418-resistant parental lines were generated, with successful expression of adrenoreceptor protein monitored using radioligand binding techniques. Stable single cell clones derived from the parental lines were screened in adrenoreceptor binding assays to identify clones having high adrenoreceptor density. Roller bottle cultures of the cloned lines were used to provide cell membranes for subsequent adrenoreceptor binding characterization studies. A cell line containing the SnaB30 vector expressing the human erythropoietin gene served as a negative control.
(§5) For adrenoreceptor binding assays, large scale membrane preparations were utilized in which 6 million cells were seeded into small (450 cm^2) Corning tissue culture roller bottles. 200 mL of DMEM containing 10% fetal calf serum and 300 μM G418 were added to each roller bottle. A 95% air/5% CO2 gas mixture (sterile) was injected into each roller bottle prior to sealing. The bottles were then incubated at 37° C. on a roller rack for 5 days. Cells were re-fed with fresh medium after 3 days in culture.
as §2, §3

[3] = molecular target: T3, α-1b adrenoreceptor (hamster) (Mesocricetus auratus, UniProt P18841); assay: In vitro [3H]-prazosin radioligand binding, cloned α-1b adrenoreceptor expressed in LTK cells
T3 construct: expressed in transfected cells; cDNA from TULCO; membranes
T3 sequence (P18841 1-515): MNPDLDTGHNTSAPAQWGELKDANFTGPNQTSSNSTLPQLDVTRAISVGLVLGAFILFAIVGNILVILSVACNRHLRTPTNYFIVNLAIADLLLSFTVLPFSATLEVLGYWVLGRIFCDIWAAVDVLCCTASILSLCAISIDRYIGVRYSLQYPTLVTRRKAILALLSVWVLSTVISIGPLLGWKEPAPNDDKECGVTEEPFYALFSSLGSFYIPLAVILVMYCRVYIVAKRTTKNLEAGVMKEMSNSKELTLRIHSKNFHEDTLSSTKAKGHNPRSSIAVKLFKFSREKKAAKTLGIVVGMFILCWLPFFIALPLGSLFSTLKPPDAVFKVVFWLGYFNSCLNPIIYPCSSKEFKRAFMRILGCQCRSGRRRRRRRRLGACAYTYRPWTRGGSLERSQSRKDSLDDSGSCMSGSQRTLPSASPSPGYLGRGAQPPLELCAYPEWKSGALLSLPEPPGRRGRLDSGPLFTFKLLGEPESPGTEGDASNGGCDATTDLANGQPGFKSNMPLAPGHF
Source text: as §4, §5, §2, §3

[4] = molecular target: T4, α-1d adrenoreceptor (rat) (Rattus norvegicus, UniProt P23944); assay: In vitro [3H]-prazosin radioligand binding, cloned α-1d adrenoreceptor expressed in LTK cells
T4 construct: expressed in transfected cells; cDNA from TULCO; membranes
T4 sequence (P23944 1-561): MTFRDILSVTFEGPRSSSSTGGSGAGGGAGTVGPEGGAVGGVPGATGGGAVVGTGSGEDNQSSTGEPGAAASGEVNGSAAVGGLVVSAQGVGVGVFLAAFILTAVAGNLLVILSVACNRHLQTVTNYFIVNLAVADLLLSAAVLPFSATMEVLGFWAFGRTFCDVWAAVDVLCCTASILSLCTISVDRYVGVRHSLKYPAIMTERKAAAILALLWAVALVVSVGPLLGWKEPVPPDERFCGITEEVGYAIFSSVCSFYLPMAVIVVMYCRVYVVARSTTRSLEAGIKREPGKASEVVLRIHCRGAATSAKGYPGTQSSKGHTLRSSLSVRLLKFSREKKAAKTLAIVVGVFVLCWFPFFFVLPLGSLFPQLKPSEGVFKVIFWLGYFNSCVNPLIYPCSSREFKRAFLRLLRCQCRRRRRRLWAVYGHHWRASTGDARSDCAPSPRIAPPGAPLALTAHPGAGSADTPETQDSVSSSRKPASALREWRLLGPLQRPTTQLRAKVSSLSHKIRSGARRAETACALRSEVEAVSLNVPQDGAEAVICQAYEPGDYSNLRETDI
Method: as §1, §4, §5, §2, §3

[5] = system: α-1 adrenoreceptor; conditions: cited from earlier work; for dose limiting side effects: BPH treatment; for urinary flow rates and subjective symptom scores: longer term studies, BPH; for clinical efficacy in BPH: non-selective α-1 blockers
[6] = molecular target: T5, α-1 Adrenoceptors (Rat Aorta) (Rattus norvegicus, UniProt P23944); assay: Functional antagonism at α-1 adrenoceptors, rat aorta; type: cell-based
T5 construct: Rat Aorta; from tissue; host or cells: rat aorta
T5 sequence (P23944 1-561): T4 sequence (P23944 1-561)
Source text: Functional assays indicative of pharmacologically defined α-1 adrenoreceptors were used to further characterize compounds. Inhibition of phenylephrine (PE)-induced contraction of canine prostate smooth muscle can be correlated with α-1A adrenoreceptor activation. […] For each of these models, agonist dose response curves were repeated against increasing concentrations of test agent to derive a Schild plot [log ([…]) against log (molarity of test agent)] to determine the pA2.

| SMILES | Ki [1] [nM] | Ki [2] [nM] | Ki [3] [nM] | Ki [4] [nM] | dose limiting side effects [5] | urinary flow rates and subjective symptom scores [5] | clinical efficacy in BPH [5] | In Vitro Characterization (pA2) Rat Aorta [6] |
| --- | --- | --- | --- | --- | --- | --- | --- | --- |
| COc1cc2[nH]c(=O)n(CCCCN3C[C@@H]4COc5cccc(OC)c5[C@H]4C3)c(=O)c2cc1OC (racemic) [Example 82, 3-[4-((±)-trans-9-Methoxy-1,2,3,3a,4,9b-hexahydro-[1]-benzopyrano[3,4-c]pyrrol-2-yl)butyl]-6,7-dimethoxy-quinazoline-2,4(1H,3H)-dione dihydrochloride] | 0.577 | 0.361 | 4.9 | 1.58 |  |  |  |  |
| COc1cccc2c1[C@@H]1CCN(CCCn3c(=O)[nH]c4c(sc5ncccc54)c3=O)C[C@H]1CO2 (relative stereo) [Example 84, 3-[3-(±)-trans-10-Methoxy-1,3,3,4a,5,10b-hexahydro-2H-[1]-benzopyrano[3,4-c]pyrido-3-yl)propyl]-pyrido[3',2':4,5]thieno[3,2-d]pyrimidine-2,4(1H,3H)-dione hydrochloride] | 0.479 | 0.617 | 4.92 | 1.12 |  |  |  |  |
| COc1cc2[nH]c(=O)n(CCCCN3CC[C@H]4c5c(OC)cccc5OC[C@@H]4C3)c(=O)c2cc1OC (relative stereo) [Example 86, 3-[4-((±)-trans-10-Methoxy-1,3,4,4a,5,10b-hexahydro-2H-[1]-benzopyrano[3,4-c]pyrido-3-yl)butyl]-6,7-dimethoxy-quinazoline-2,4(1H,3H)-dione hydrochloride] | 0.54 | 0.202 | 1.71 | 0.398 |  |  |  |  |
| COc1cccc2c1[C@@H]1CCN(CCCn3c(=O)[nH]c4c(sc5ccccc54)c3=O)C[C@H]1CO2 (relative stereo) [Example 89, 3-[3-((±)-trans-10-Methoxy-1,3,4,4a,5,10b-hexahydro-2H-[1]-benzopyrano[3,4-c]pyrido-3-yl)propyl]-[1]-benzthieno[3,2-d]pyrimidine-2,4(1H,3H)-dione hydrochloride] | 0.133 | 0.038 | 0.111 | 0.061 |  |  |  |  |
| COc1cccc2c1[C@@H]1CCN(CCn3c(=O)[nH]c4c(sc5ccccc54)c3=O)C[C@H]1CO2 (relative stereo) [Example 90, 3-[2-((±)-trans-10-Methoxy-1,3,4,4a,5,10b-hexahydro-2H-[1]-benzopyrano[3,4-c]pyrido-3-yl)ethyl]-[1]-benzthieno[3,2-d]pyrimidine-2,4(1H,3H)-dione hydrochloride] | 0.323 | 0.135 | 2.29 | 0.439 |  |  |  |  |
| COc1cc2nc(N3CCN(C(=O)C4COc5ccccc5O4)CC3)nc(N)c2cc1OC (centres unmarked) [Doxazosin, doxazosin] |  |  |  |  | hypotension, dizziness, and muscle fatigue | significant improvements in urinary flow rates and subjective symptom scores | Clinical efficacy |  |
| COc1cc2nc(N3CCN(C(=O)C4CCCO4)CC3)nc(N)c2cc1OC (centres unmarked) [Terazosin, terazosin] |  |  |  |  | hypotension, dizziness, and muscle fatigue | significant improvements in urinary flow rates and subjective symptom scores | Clinical efficacy | 8.65 |
| O=C(NC1CCN(CCc2c[nH]c3ccccc23)CC1)c1ccccc1 [indoramin] |  |  |  |  | hypotension, dizziness, and muscle fatigue | significant improvements in urinary flow rates and subjective symptom scores |  |  |
